Measured values taken from PubChem BioAssay (NCI).
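Grown in 96-well plates, cells were treated for 48 hours with each compound at five concentrations. Insufficient inhibition: endpoint recorded as highest concentration tested. Here, GI50 denotes the concentration required for 50% inhibition of growth. TGI: concentration producing complete growth inhibition.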

Tests used:
Experiment in all cases: NCI anticancer screen, dose series, 48 h
SF-539 CNS = tested on: SF-539 CNS
RXF 393 renal = tested on: RXF 393 renal
PC-3 prostate = tested on: PC-3 prostate
UACC-62 melanoma = tested on: UACC-62 melanoma
HCC-2998 colon = tested on: HCC-2998 colon
SK-OV-3 ovarian = tested on: SK-OV-3 ovarian
NCI/ADR-RES ovarian = tested on: NCI/ADR-RES ovarian
BT-549 breast = tested on: BT-549 breast
SF-268 CNS = tested on: SF-268 CNS
TK-10 renal = tested on: TK-10 renal
SNB-75 CNS = tested on: SNB-75 CNS
OVCAR-5 ovarian = tested on: OVCAR-5 ovarian
SK-MEL-5 melanoma = tested on: SK-MEL-5 melanoma
MDA-MB-435 = tested on: MDA-MB-435
T-47D breast = tested on: T-47D breast
SF-295 CNS = tested on: SF-295 CNS
CAKI-1 renal = tested on: CAKI-1 renal
MALME-3M melanoma = tested on: MALME-3M melanoma
RPMI-8226 leukemia = tested on: RPMI-8226 leukemia
MOLT-4 leukemia = tested on: MOLT-4 leukemia
A549 NSCLC = tested on: A549 NSCLC
HCT-116 colon = tested on: HCT-116 colon
NCI-H23 lung = tested on: NCI-H23 lung
NCI-H460 lung = tested on: NCI-H460 lung
UO-31 renal = tested on: UO-31 renal
LOX IMVI melanoma = tested on: LOX IMVI melanoma
MCF7 breast = tested on: MCF7 breast
SNB-19 CNS = tested on: SNB-19 CNS
NCI-H522 lung = tested on: NCI-H522 lung
U251 CNS = tested on: U251 CNS
SK-MEL-28 melanoma = tested on: SK-MEL-28 melanoma
MDA-MB-231 breast = tested on: MDA-MB-231 breast
786-0 renal = tested on: 786-0 renal
COLO 205 colon = tested on: COLO 205 colon
HT29 colon = tested on: HT29 colon
SW-620 colon = tested on: SW-620 colon
K-562 leukemia = tested on: K-562 leukemia
SN12C renal = tested on: SN12C renal
DU-145 prostate = tested on: DU-145 prostate
OVCAR-8 ovarian = tested on: OVCAR-8 ovarian
M14 melanoma = tested on: M14 melanoma
HOP-62 NSCLC = tested on: HOP-62 NSCLC
HS 578T breast = tested on: HS 578T breast
SR leukemia = tested on: SR leukemia
HOP-92 NSCLC = tested on: HOP-92 NSCLC
IGROV1 ovarian = tested on: IGROV1 ovarian
SK-MEL-2 melanoma = tested on: SK-MEL-2 melanoma
EKVX NSCLC = tested on: EKVX NSCLC
A498 renal = tested on: A498 renal
OVCAR-3 ovarian = tested on: OVCAR-3 ovarian
OVCAR-4 ovarian = tested on: OVCAR-4 ovarian
HCT-15 colon = tested on: HCT-15 colon
CCRF-CEM leukemia = tested on: CCRF-CEM leukemia
KM12 colon = tested on: KM12 colon
NCI-H226 lung = tested on: NCI-H226 lung
ACHN renal = tested on: ACHN renal
UACC-257 melanoma = tested on: UACC-257 melanoma

COc1ccc(/C=C\c2cc(OC)c(OC)c(OC)c2)cc1OCC(=O)Nc1nc2ccc(F)cc2s1
GI50 (SF-539 CNS): 4.51 µM | TGI (SF-539 CNS): > 100 µM | GI50 (RXF 393 renal): 6.29 µM | TGI (RXF 393 renal): > 100 µM | GI50 (PC-3 prostate): 6.74 µM | TGI (PC-3 prostate): > 100 µM | GI50 (UACC-62 melanoma): 4.05 µM | TGI (UACC-62 melanoma): > 100 µM | GI50 (HCC-2998 colon): > 100 µM | TGI (HCC-2998 colon): > 100 µM | GI50 (SK-OV-3 ovarian): 8 µM | TGI (SK-OV-3 ovarian): > 100 µM | GI50 (NCI/ADR-RES ovarian): 2.55 µM | TGI (NCI/ADR-RES ovarian): > 100 µM | GI50 (BT-549 breast): 16.7 µM | TGI (BT-549 breast): > 100 µM | GI50 (SF-268 CNS): 7.23 µM | TGI (SF-268 CNS): > 100 µM | GI50 (TK-10 renal): 9.89 µM | TGI (TK-10 renal): > 100 µM | GI50 (SNB-75 CNS): 4.39 µM | TGI (SNB-75 CNS): > 100 µM | GI50 (OVCAR-5 ovarian): > 100 µM | TGI (OVCAR-5 ovarian): > 100 µM | GI50 (SK-MEL-5 melanoma): 1.76 µM | TGI (SK-MEL-5 melanoma): 8.96 µM | GI50 (MDA-MB-435): 0.335 µM | TGI (MDA-MB-435): > 100 µM | GI50 (T-47D breast): 3.39 µM | TGI (T-47D breast): 68.5 µM | GI50 (SF-295 CNS): 4.29 µM | TGI (SF-295 CNS): > 100 µM | GI50 (CAKI-1 renal): 2.78 µM | TGI (CAKI-1 renal): > 100 µM | GI50 (MALME-3M melanoma): 5.22 µM | TGI (MALME-3M melanoma): > 100 µM | GI50 (RPMI-8226 leukemia): 6.36 µM | TGI (RPMI-8226 leukemia): > 100 µM | GI50 (MOLT-4 leukemia): 3.07 µM | TGI (MOLT-4 leukemia): > 100 µM | GI50 (A549 NSCLC): 5.99 µM | TGI (A549 NSCLC): > 100 µM | GI50 (HCT-116 colon): 4.48 µM | TGI (HCT-116 colon): > 100 µM | GI50 (NCI-H23 lung): 4.26 µM | TGI (NCI-H23 lung): > 100 µM | GI50 (NCI-H460 lung): 4.31 µM | TGI (NCI-H460 lung): > 100 µM | GI50 (UO-31 renal): 2.56 µM | TGI (UO-31 renal): > 100 µM | GI50 (LOX IMVI melanoma): 3.23 µM | TGI (LOX IMVI melanoma): > 100 µM | GI50 (MCF7 breast): 2.3 µM | TGI (MCF7 breast): > 100 µM | GI50 (SNB-19 CNS): > 100 µM | TGI (SNB-19 CNS): > 100 µM | GI50 (NCI-H522 lung): 2.92 µM | TGI (NCI-H522 lung): > 100 µM | GI50 (U251 CNS): 4.33 µM | TGI (U251 CNS): > 100 µM | GI50 (SK-MEL-28 melanoma): > 100 µM | TGI (SK-MEL-28 melanoma): > 100 µM | GI50 (MDA-MB-231 breast): 9.34 µM | TGI (MDA-MB-231 breast): > 100 µM | GI50 (786-0 renal): 7.12 µM | TGI (786-0 renal): > 100 µM | GI50 (COLO 205 colon): 7.78 µM | TGI (COLO 205 colon): > 100 µM | GI50 (HT29 colon): 9.63 µM | TGI (HT29 colon): > 100 µM | GI50 (SW-620 colon): 65.1 µM | TGI (SW-620 colon): > 100 µM | GI50 (K-562 leukemia): 3.62 µM | TGI (K-562 leukemia): > 100 µM | GI50 (SN12C renal): 4.61 µM | TGI (SN12C renal): > 100 µM | GI50 (DU-145 prostate): 8.97 µM | TGI (DU-145 prostate): > 100 µM | GI50 (OVCAR-8 ovarian): 7.15 µM | TGI (OVCAR-8 ovarian): > 100 µM | GI50 (M14 melanoma): 6.82 µM | TGI (M14 melanoma): > 100 µM | GI50 (HOP-62 NSCLC): 5.7 µM | TGI (HOP-62 NSCLC): > 100 µM | GI50 (HS 578T breast): > 100 µM | TGI (HS 578T breast): > 100 µM | GI50 (SR leukemia): 2.19 µM | TGI (SR leukemia): > 100 µM | GI50 (HOP-92 NSCLC): 5.73 µM | TGI (HOP-92 NSCLC): > 100 µM | GI50 (IGROV1 ovarian): 4.17 µM | TGI (IGROV1 ovarian): > 100 µM | GI50 (SK-MEL-2 melanoma): 8.46 µM | TGI (SK-MEL-2 melanoma): > 100 µM | GI50 (EKVX NSCLC): 5.72 µM | TGI (EKVX NSCLC): > 100 µM | GI50 (A498 renal): 6.25 µM | TGI (A498 renal): > 100 µM | GI50 (OVCAR-3 ovarian): 9.99 µM | TGI (OVCAR-3 ovarian): > 100 µM | GI50 (OVCAR-4 ovarian): 7.3 µM | TGI (OVCAR-4 ovarian): > 100 µM | GI50 (HCT-15 colon): 8.19 µM | TGI (HCT-15 colon): > 100 µM | GI50 (CCRF-CEM leukemia): 3.7 µM | TGI (CCRF-CEM leukemia): > 100 µM | GI50 (KM12 colon): 4.78 µM | TGI (KM12 colon): > 100 µM | GI50 (NCI-H226 lung): 5.6 µM | TGI (NCI-H226 lung): > 100 µM | GI50 (ACHN renal): 3.33 µM | TGI (ACHN renal): > 100 µM | GI50 (UACC-257 melanoma): 8.69 µM | TGI (UACC-257 melanoma): > 100 µM
